Experimental data as given in patent publication US4515942A, “Antibiotics KA-6606 XII, XIII, XV, XVI and XVII” (Kowa Company, Ltd., priority 1980, dated 1985).

Experiments:
[1] = system: Bacillus subtilis ATCC 6633; assay: disc plate method (Table 1); assay type: cell-based; conditions: paper disc 8 mm, Bacillus subtilis ATCC 6633 (Table 1)
Text: (§1) Tables 1 and 2 show the antibacterial spectra of the antibiotics KA-6606 VII to KA-6606 XVII against various bacteria, determined by the disc plate method, in comparison with the KA-6606 II substance. Each of the chemicals is used as impregnated in a paper disc having a diameter of 8 mm.

Escherichia coli NIHJ = assay: disc plate method (Table 1); assay type: cell-based; conditions: 1 mg/ml, paper disc 8 mm
Text: as §1

Klebsiella pneumoniae = assay: disc plate method (Table 1); assay type: cell-based; conditions: 1 mg/ml, paper disc 8 mm
Text: as §1

Proteus inconstans [2] = assay: disc plate method (Table 1); assay type: cell-based; conditions: 1 mg/ml; paper disc 8 mm; Proteus inconstans (Table 1)
Text: as §1

Proteus vulgaria = assay: disc plate method (Table 1); assay type: cell-based; conditions: 1 mg/ml, paper disc 8 mm
Text: as §1

Serratia marcescens = assay: disc plate method (Table 1); assay type: cell-based; conditions: 1 mg/ml, paper disc 8 mm
Text: as §1

[3] = system: Staphylococcus aureus 209P; assay: disc plate method (Table 1); assay type: cell-based; conditions: 1 mg/ml, paper disc 8 mm
Text: as §1

Solubility in solvents = assay type: physicochemical
Stability = assay type: physicochemical; conditions: pH range in which stable
[4] = system: Bacillus subtilis ATCC 6633; assay: disc plate method (Table 2); assay type: cell-based; conditions: Bacillus subtilis, paper disc 8 mm, read-out: Inhibition zone (diameter); for zone of inhibition at 1000 µg/mL: ATCC6633, 1 mg/ml, Bacillus subtilis ATCC 6633 (Table 2)
Text: as §1

[5] = system: Escherichia coli NIHJ JC-2; assay: disc plate method (Table 2); assay type: cell-based; conditions: Escherichia coli, paper disc 8 mm, read-out: Inhibition zone (diameter); for zone of inhibition at 1000 µg/mL: NIHJJC2, 1 mg/ml
Text: as §1

[6] = system: Klebsiella pneumoniae PCI 602; assay: disc plate method (Table 2); assay type: cell-based; conditions: Klebsiella pneumoniae, PCI602, 1 mg/ml, paper disc 8 mm, read-out: Inhibition zone (diameter)
Text: as §1

Proteus inconstans [7] = assay: disc plate method (Table 2); assay type: cell-based; conditions: Providencia alcalifaciens, 1 mg/ml; paper disc 8 mm; Proteus inconstans (Table 2); read-out: Inhibition zone (diameter)
Text: as §1

Proteus vulgaris OX-107 = assay: disc plate method (Table 2); assay type: cell-based; conditions: Proteus vulgaris, paper disc 8 mm, read-out: Inhibition zone (diameter); for zone of inhibition at 1000 µg/mL: OX107, 1 mg/ml
Text: as §1

[8] = system: Pseudomonas aeruginosa NCTC 10490; assay: disc plate method (Table 2); assay type: cell-based; conditions: Pseudomonas aeruginosa, paper disc 8 mm, read-out: Inhibition zone (diameter); for zone of inhibition at 1000 µg/mL: NCTC10490, 1 mg/ml
Text: as §1

Serratia marcescens NHL = assay: disc plate method (Table 2); assay type: cell-based; conditions: Serratia marcescens, paper disc 8 mm, read-out: Inhibition zone (diameter); for zone of inhibition at 1000 µg/mL: 1 mg/ml
Text: as §1

[9] = system: Staphylococcus aureus 209D-JC-1; assay: disc plate method (Table 2); assay type: cell-based; conditions: Staphylococcus aureus, paper disc 8 mm, read-out: Inhibition zone (diameter); for zone of inhibition at 1000 µg/mL: 209DJC1, 1 mg/ml
Text: as §1

Pseudomonas aeruginosa = assay: disc plate method (Table 1); assay type: cell-based; conditions: 1 mg/ml, paper disc 8 mm, read-out: Inhibition zone (diameter)
Text: as §1

[10] = read-out: Inhibition zone (diameter)

Row | Structure (SMILES) | Inhibition zone (diameter) (Klebsiella pneumoniae) | Inhibition zone (diameter) (Proteus inconstans [2]) | Solubility in solvents: chloroform (Solubility in solvents) | Solubility in solvents: ethyl acetate (Solubility in solvents) | Solubility in solvents: methanol (Solubility in solvents) | Solubility in solvents: water (Solubility in solvents) | Stability (stable at pH) (Stability) | zone of inhibition at 1000 µg/mL [4] | zone of inhibition at 1000 µg/mL [5] | zone of inhibition at 1000 µg/mL [6] | zone of inhibition at 1000 µg/mL (Proteus inconstans [7]) | zone of inhibition at 1000 µg/mL (Proteus vulgaris OX-107) | zone of inhibition at 1000 µg/mL [8] | zone of inhibition at 1000 µg/mL (Serratia marcescens NHL) | zone of inhibition at 1000 µg/mL [9] | further results
1 | CNC1C(OC)CC(N)C(OC2OC(C(C)N)CCC2N)C1O (stereo not shown) [KA-6606 VII] | 9.0 mm | 9.0 mm | Insoluble | Insoluble | Easily soluble | Easily soluble | 2-10 pH | – | – | – | – | – | – | – | – | zone of inhibition at 1000 µg/mL ([1]; Bacillus subtilis, ATCC6633, 1 mg/ml, read-out: Inhibition zone (diameter)): 17.8 mm; zone of inhibition at 1000 µg/mL (Escherichia coli NIHJ; Escherichia coli, read-out: Inhibition zone (diameter)): 17.5 mm; zone of inhibition at 1000 µg/mL (Proteus vulgaria; [10]): 20.1 mm; zone of inhibition at 1000 µg/mL (Serratia marcescens; [10]): 15.1 mm; zone of inhibition at 1000 µg/mL ([3]; Staphylococcus aureus, 209P, read-out: Inhibition zone (diameter)): 9.3 mm
2 | CNC1C(OC)CC(N)C(OC2OC(CN)CCC2N)C1O (stereo not shown) [KA-6606 XIV] | – | – | Insoluble | Insoluble | Easily soluble | Easily soluble | 2-10 pH | 19.1 mm | 11.8 mm | 9.5 mm | 8.5 mm | 12 mm | 9.2 mm | 13.5 mm | 17.1 mm | –
3 | CNC1C(OC)CC(N)C(OC2OC(CN)=CCC2N)C1O (stereo not shown) [KA-6606 XV] | – | – | Insoluble | Insoluble | Easily soluble | Easily soluble | 2-10 pH | 23.1 mm | 18.5 mm | 18.6 mm | 9 mm | 16.4 mm | 16.2 mm | 18.2 mm | 23.3 mm | –
4 | CNC1C(O)CC(N)C(OC2OC(CO)C(O)C(O)C2N)C1O (stereo not shown) [KA-6606 XII] | – | – | Insoluble | Insoluble | – | Easily soluble | 2-10 pH | – | – | – | – | – | – | – | – | zone of inhibition at 10000 µg/mL ([4]; ATCC6633, 10 mg/ml, Bacillus subtilis ATCC 6633): 17.7 mm; zone of inhibition at 10000 µg/mL ([5]; NIHJJC2, 10 mg/ml): 9.2 mm; zone of inhibition at 10000 µg/mL (Proteus vulgaris OX-107; OX107, 10 mg/ml): 9.3 mm; zone of inhibition at 10000 µg/mL ([8]; NCTC10490, 10 mg/ml): 9.3 mm; zone of inhibition at 10000 µg/mL (Serratia marcescens NHL; 10 mg/ml): 9.8 mm; zone of inhibition at 10000 µg/mL ([9]; 209DJC1, 10 mg/ml): 16.8 mm
5 | CNC1C(OC)CC(N)C(OC2OC(C(C)N)CCC2N)C1O (stereo not shown) [KA-6606 VIII] | 18.8 mm | 18.9 mm | Insoluble | Insoluble | Easily soluble | Easily soluble | 2-10 pH | – | – | – | – | – | – | – | – | Inhibition zone (diameter) ([1]; 1 mg/ml): 26.2 mm; Inhibition zone (diameter) (Escherichia coli NIHJ): 21.9 mm; Inhibition zone (diameter) (Proteus vulgaria): 23.3 mm; zone of inhibition at 1000 µg/mL (Pseudomonas aeruginosa): 17.3 mm; Inhibition zone (diameter) (Serratia marcescens): 19.7 mm; Inhibition zone (diameter) [3]: 13.5 mm
